{
  "source": "patent US20050288338A1",
  "about": "“Amido compounds and their use as pharmaceuticals” (priority 2004, published 2005)",
  "origin": "cited, not measured here",
  "biological_target": "T1, 11βHSD1 in the eye (Homo sapiens, UniProt P28845)",
  "T1 construct": "host or cells: eye of healthy human volunteers (in vivo)",
  "T1 sequence (P28845 whole entry)": "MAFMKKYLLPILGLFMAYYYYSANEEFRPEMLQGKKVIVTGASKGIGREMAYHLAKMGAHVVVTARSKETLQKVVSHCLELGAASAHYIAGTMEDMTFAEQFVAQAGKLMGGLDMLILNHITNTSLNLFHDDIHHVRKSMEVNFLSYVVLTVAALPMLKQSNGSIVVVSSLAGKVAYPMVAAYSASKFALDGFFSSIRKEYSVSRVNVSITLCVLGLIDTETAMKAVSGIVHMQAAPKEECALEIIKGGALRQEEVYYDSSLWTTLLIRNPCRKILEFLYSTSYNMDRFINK",
  "conditions": "healthy volunteers, after seven days of carbenoxolone treatment",
  "data": [
    {"smiles": "CC1(C)[C@@H](OC(=O)CCC(=O)O)CC[C@]2(C)[C@H]3C(=O)C=C4[C@@H]5C[C@@](C)(C(=O)O)CC[C@]5(C)CC[C@@]4(C)[C@]3(C)CC[C@@H]12", "note": "[carbenoxolone]", "values": [
      {"measurement": "IOP was reduced by", "value": 18, "unit": "%"}
    ]}
  ]
}
